{
  "source": "patent US12653816B2",
  "about": "“Composition for inhibiting growth of cancer stem cells” (INDUSTRY-ACADEMIC COOPERATION FOUNDATION, YONSEI UNIVERSITY, priority 2020, dated 2026)",
  "key": {"[1]": {"system": "lung fibrosis lung fibroblasts", "conditions": "cited from earlier work"}, "[2]": {"system": "human colonic myofibroblasts", "conditions": "cited from earlier work"}, "[3]": {"system": "HS746T cell line", "experiment": "Cell viability assay (Cell Counting Kit-8), HS746T", "assay_type": "cell-based, human", "conditions": "for antitumor effect (number of living cells) / antitumor effect (cell viability): treatment alone, 48 hours; for antitumor effect (number of living cells): cisplatin 5 and 10 μM, compounds 5 and 10 μg/ml, FIGS. 7A and 7B; for antitumor effect (cell viability): HS746T stem-like cells, various concentrations, FIG. 1", "protocol": "(§1) In order to evaluate the ability to inhibit the growth or metastasis of cancer cells or cancer stem cells in the examples according to the present invention, the present inventors obtained MKN1 and HS746T, which are cell lines having human gastric cancer stem cell characteristics, and SNU601, YCC7 and NCIN87 cells, which are human gastric cancer cell lines, from the American Type Culture Collection (ATCC) and the Korean Cell Line Bank (KCRB). The cell lines were cultured in different culture media and culture conditions according to ATCC's or KCRB's guidelines. The MKN1, SNU601, and NCIN87 cell lines were cultured in RPMI1640 medium containing 10% fetal bovine serum (FBS), 2 mM L-glutamine, 100 U/ml penicillin and 100 μg/ml streptomycin, and the HS746T and YCC7 Cell lines were cultured in DMEM containing 10% FBS, 2 mM L-glutamine, 100 U/ml penicillin and 100 μg/ml streptomycin. All the cell lines were cultured at 37° C. under 5% CO2, and subjected to a mycoplasma contamination test.\n(§2) Each of the cell lines cultured in the Preparation Example was dispensed into a well plate at a density of 1×10^4 cells per well, and cultured overnight at 37° C. under 5% CO2. Then, the HS746T and MKN1 cell lines, which are gastric cancer stem-like cells, and the YCC7 and NCIN87 cell lines, which are gastric cancer cells, were treated with various concentrations of each of cisplatin (CDDP), which is an anticancer drug currently frequently used in the treatment of gastric cancer patients, and the compound CCG-232601 which is an MRTF-A inhibitor. 100 μL of each cell culture and 10 μL of reaction buffer (CCK) were mixed together, placed in a 96-well plate, and incubated for 1 hour at room temperature, and then the absorbance at a wavelength of 450 nm was measured using a spectrophotometer (Synergy HTX Multi-Reader, BioTek, Winooski, VT, USA). At the same time, the number of cells in each sample was measured with a cell viability assay kit (Cell Counting Kit-8), and the measured value was converted so that the measured value for the same number of cells in each sample could be compared with the number of cells in the negative control group. The experimental results presented are the mean values of the repeated experiments.\nThe present inventors attempted to further confirm the therapeutic effects of the compounds CCG-222740 and CCG-203971, which are compounds other than the compound CCG-232601 corresponding to the MRTFA/SRF inhibitors, against cancer stem cells. As reviewed in Example 1 above, it has been confirmed that the gastric cancer cell line HS746T is of a stem cell-like gastric cancer type, and thus is resistant to the anticancer drug cisplatin. The HS746T cell line was treated with cisplatin and the compounds CCG-222740 and CCG-203971 corresponding to MRTFA/SRF inhibitors. For cell treatment, cisplatin was used at concentrations of 0 μM, 5 μM and 10 μM, and the compound CCG-222740 or CCG-203971 was used at concentrations of 0 μg/ml, 5 μg/ml and 10 μg/ml. The control group was treated with the same amount of DMSO as the compound used for each experimental group. After 48 hours, the number of living cells was measured using a cell viability assay kit (Cell Counting Kit-8), and the results are shown in FIGS. 7A and 7B."}, "[4]": {"system": "murine model of skin injury", "conditions": "cited from earlier work"}, "[5]": {"system": "preclinical model of fibrosis", "conditions": "cited from earlier work"}, "[6]": {"system": "alpha smooth muscle actin protein", "conditions": "cited from earlier work"}, "[7]": {"system": "MKN1 cell line", "experiment": "Transwell invasion assay, MKN1", "assay_type": "cell-based, human", "conditions": "MKN1, 10 μg/ml, 12 hours, Matrigel transwell, FIG. 3", "protocol": "(§3) Transwell invasion assay was performed with or without CCG-232601 treatment. The invasion ability was measured using a 6.5-mm transwell with an 8.0 μm-pore polycarbonate membrane insert (Corning) after coating with Matrigel (Corning) diluted to 0.67 μg/μl with serum-free medium. Then, cells (2×10^4 cells/well) were suspended in 200 μL of a serum-free medium with vehicle or in 10 μg/ml of CCG-232601, and 1,000 μL of culture medium containing 10% FBS was added to the lower chamber. After 12 hours, the migrated cells were stained with 0.2% crystal violet and observed under an optical microscope. The average number of cells that penetrated the membrane was calculated with ImageJ (NIH) from three randomly selected high-power fields and from two independent experiments, and the results are shown in FIG. 3."}, "[8]": {"system": "HS746T cell line", "experiment": "Oxygen consumption rate and extracellular acidification rate (Seahorse), HS746T", "assay_type": "cell-based, human", "protocol": "(§4) In particular, in order to confirm that the compound CCG-232601 has an excellent inhibitory effect on cancer stem cell growth, the oxygen consumption rates (OCRs) and extracellular acidification rates (ECARs) of the stem-like cell lines HS746T and MKN1 having high resistance to metabolic stress were measured and the results are shown in FIG. 2. More specifically, each of the cell lines was seeded in Seahorse normal culture medium at 70 to 80% confluency, and mitochondrial oxidation and glycolytic activity were measured by measuring oxygen consumption rate (OCR, pmol/min/μg protein) and extracellular acidification rate (ECAR, mpH/min/μg protein) using an XF96 or XFp extracellular flux analyzer (Agilent). Mitochondrial oxidation ability of cells pretreated for 1 hour with or without 10 mM β-HB (Sigma) was evaluated using the Seahorse XF mito stress kit (Agilent). To address changes in oxidation and glycolysis upon treatment with CCG-232601, cells were pretreated overnight with vehicle or the inhibitor, and finally 10 mM β-hydroxybutyrate was added during the first injection."}, "[9]": {"system": "MKN1 cell line", "experiment": "Oxygen consumption rate and extracellular acidification rate (Seahorse), MKN1", "assay_type": "cell-based, human", "protocol": "as §4"}, "[10]": {"system": "bleomycin-induced dermal fibrosis", "conditions": "administered orally to mice; cited from earlier work"}, "[11]": {"system": "NCIN87 cell line", "experiment": "Cell viability assay (Cell Counting Kit-8), NCIN87", "assay_type": "cell-based, human", "conditions": "NCIN87 gastric cancer cells, treatment alone, various concentrations, 48 hours, FIG. 1", "protocol": "(§5) In order to evaluate the ability to inhibit the growth or metastasis of cancer cells or cancer stem cells in the examples according to the present invention, the present inventors obtained MKN1 and HS746T, which are cell lines having human gastric cancer stem cell characteristics, and SNU601, YCC7 and NCIN87 cells, which are human gastric cancer cell lines, from the American Type Culture Collection (ATCC) and the Korean Cell Line Bank (KCRB). The cell lines were cultured in different culture media and culture conditions according to ATCC's or KCRB's guidelines. […]\n(§6) Each of the cell lines cultured in the Preparation Example was dispensed into a well plate at a density of 1×10^4 cells per well, and cultured overnight at 37° C. under 5% CO2. […] 100 μL of each cell culture and 10 μL of reaction buffer (CCK) were mixed together, placed in a 96-well plate, and incubated for 1 hour at room temperature, and then the absorbance at a wavelength of 450 nm was measured using a spectrophotometer (Synergy HTX Multi-Reader, BioTek, Winooski, VT, USA). At the same time, the number of cells in each sample was measured with a cell viability assay kit (Cell Counting Kit-8), and the measured value was converted so that the measured value for the same number of cells in each sample could be compared with the number of cells in the negative control group. […]"}, "[12]": {"system": "MKN1 cell line", "experiment": "Cell viability assay (Cell Counting Kit-8), MKN1", "assay_type": "cell-based, human", "conditions": "for antitumor effect (cell viability): MKN1 stem-like cells, treatment alone, various concentrations, 48 hours, FIG. 1", "protocol": "as §1, §2\nAccordingly, in order to evaluate the effect of co-administration of the compound CCG-232601, the survival and growth inhibitory effects of administration of CCG-232601 and cisplatin (CDDP) alone or in combination to the MKN1 cell line were evaluated using a cell viability assay kit (Cell Counting Kit-8; CCK-8). In order to evaluate the effect of administration in combination compared to that of administration alone, 5 μg/ml of CCG-232601 was firstly administered to the MKN1 cell line, and after 24 hours, 5 μM cisplatin (CDDP) was secondarily administered. After 24 hours therefrom, the results were checked with a cell viability analysis kit (CCK-8 assay)."}, "[13]": {"system": "YCC7 cell line", "experiment": "Cell viability assay (Cell Counting Kit-8), YCC7", "assay_type": "cell-based, human", "conditions": "YCC7 gastric cancer cells, treatment alone, various concentrations, 48 hours, FIG. 1", "protocol": "as §5, §6"}, "[14]": {"system": "HS746T cell line", "experiment": "Transwell invasion assay, HS746T", "assay_type": "cell-based, human", "conditions": "10 μg/ml, 12 hours, Matrigel transwell, FIG. 3", "protocol": "as §3"}},
  "data": [
    {"smiles": "O=C(Nc1ccc(Cl)cc1)C1CCCN(C(=O)c2cccc(-c3ccco3)c2)C1", "note": "(centres unmarked) [CCG-203971, N-(4-chlorophenyl)-1-(3-(furan-2-yl)benzoyl)piperidine-3-carboxamide]", "values": [
      {"measurement": "anti-fibrotic activity", "setting": "[1]", "result": "exhibits anti-fibrotic activity"},
      {"measurement": "matrix stiffness and TGF-β-mediated fibrogenesis", "setting": "[2]", "result": "inhibits both matrix stiffness and TGF-β-mediated fibrogenesis"},
      {"measurement": "antitumor effect (number of living cells)", "setting": "[3]; HS746T", "result": "significantly improved antitumor effect"},
      {"measurement": "anti-fibrotic activity", "setting": "[4]", "result": "exhibits anti-fibrotic activity"}
    ]},
    {"smiles": "O=C(Nc1ccc(Cl)cc1)C1CN(C(=O)c2cccc(-c3ccco3)c2)CC(F)(F)C1", "note": "(centres unmarked) [CCG-222740, N-(4-Chlorophenyl)-5,5-difluoro-1-(3-(furan-2-yl)benzoyl)piperidine-3-carboxamide]", "values": [
      {"measurement": "scar tissue formation", "setting": "[5]", "result": "effectively prevent scar tissue formation"},
      {"measurement": "expression of alpha smooth muscle actin protein", "setting": "[6]", "result": "prevent the expression of alpha smooth muscle actin protein"},
      {"measurement": "antitumor effect (number of living cells)", "setting": "[3]; HS746T", "result": "significantly improved antitumor effect"}
    ]},
    {"smiles": "O=C(Nc1ccc(Cl)cc1)C1CN(C(=O)c2cccc(-c3ccncc3)c2)CC(F)(F)C1", "note": "(centres unmarked) [CCG-232601, N-(4-chlorophenyl)-5,5-difluoro-1-(3-(pyridin-4-yl)benzoyl)piperidine-3-carboxamide]", "values": [
      {"measurement": "invasion and metastasis (cells that penetrated the membrane)", "setting": "[7]", "result": "reduced the invasion and metastasis"},
      {"measurement": "extracellular acidification rate (ECAR) versus oxygen consumption rate (OCR)", "setting": "[8]; HS746T, pretreated overnight, 10 mM β-hydroxybutyrate at first injection, FIG. 2", "result": "the glycolysis ECAR was higher than OCR"},
      {"measurement": "sensitivity to glucose deprivation", "setting": "[8]; gastric cancer stem cells (HS746T)", "result": "greatly increased the sensitivity to glucose deprivation"},
      {"measurement": "extracellular acidification rate (ECAR) versus oxygen consumption rate (OCR)", "setting": "[9]; MKN1, pretreated overnight, 10 mM β-hydroxybutyrate at first injection, FIG. 2", "result": "the glycolysis ECAR was higher than OCR"},
      {"measurement": "sensitivity to glucose deprivation", "setting": "[9]; gastric cancer stem cells (MKN1)", "result": "greatly increased the sensitivity to glucose deprivation"},
      {"measurement": "development of bleomycin-induced dermal fibrosis", "setting": "[10]", "result": "suppress the development of bleomycin-induced dermal fibrosis"},
      {"measurement": "antitumor effect (cell viability)", "setting": "[11]", "result": "exhibited antitumor effects"},
      {"measurement": "cell viability lower than in the negative control group and the cisplatin-only group", "setting": "[12]; MKN1, 5 μg/ml administered alone, CCK-8, FIG. 6", "result": 20, "unit": "%"},
      {"measurement": "antitumor effect (cell viability)", "setting": "[12]", "result": "significantly improved antitumor effects"},
      {"measurement": "antitumor effect (cell viability)", "setting": "[13]", "result": "exhibited antitumor effects"},
      {"measurement": "invasion and metastasis (cells that penetrated the membrane)", "setting": "[14]", "result": "reduced the invasion and metastasis"},
      {"measurement": "antitumor effect (cell viability)", "setting": "[3]", "result": "significantly improved antitumor effects"}
    ]},
    {"smiles": "N.N.[Cl][Pt][Cl]", "note": "[cisplatin]", "values": [
      {"measurement": "drug sensitivity upon cisplatin (CDDP) treatment", "setting": "[12]; MKN1, FIG. 4", "result": "exhibited resistance to cisplatin"},
      {"measurement": "antitumor effect (cell viability)", "setting": "[12]", "result": "did not exhibit antitumor effects"},
      {"measurement": "drug sensitivity lower than that of the cancer cell lines", "setting": "[12]; MKN1 versus SNU601 and NCIN87, cisplatin, FIG. 4", "result": "20 to 40", "unit": "%"},
      {"measurement": "antitumor effect (cell viability)", "setting": "[3]", "result": "did not exhibit antitumor effects"},
      {"measurement": "drug sensitivity lower than that of the cancer cell lines", "setting": "[3]; HS746T versus SNU601 and NCIN87, cisplatin, FIG. 4", "result": "20 to 40", "unit": "%"},
      {"measurement": "drug sensitivity upon cisplatin (CDDP) treatment", "setting": "[3]; HS746T, FIG. 4", "result": "exhibited resistance to cisplatin"},
      {"measurement": "antitumor effect (number of living cells)", "setting": "[3]; HS746T", "result": "did not exhibit an antitumor effect"}
    ]}
  ]
}
